Source: ChEMBL document CHEMBL4813916, “Synthesis and characterization of new potent TLR7 antagonists based on analysis of the binding mode using biomolecular simulations” (Eur J Med Chem, 2021)
pIC50: −log10 of the molar value.

The molecules below were run against T1, Toll-like receptor 7 (Homo sapiens, UniProt Q9NYK1) (assay: Antagonist activity at TLR7 (unknown origin)).
T1 sequence (Q9NYK1 whole entry): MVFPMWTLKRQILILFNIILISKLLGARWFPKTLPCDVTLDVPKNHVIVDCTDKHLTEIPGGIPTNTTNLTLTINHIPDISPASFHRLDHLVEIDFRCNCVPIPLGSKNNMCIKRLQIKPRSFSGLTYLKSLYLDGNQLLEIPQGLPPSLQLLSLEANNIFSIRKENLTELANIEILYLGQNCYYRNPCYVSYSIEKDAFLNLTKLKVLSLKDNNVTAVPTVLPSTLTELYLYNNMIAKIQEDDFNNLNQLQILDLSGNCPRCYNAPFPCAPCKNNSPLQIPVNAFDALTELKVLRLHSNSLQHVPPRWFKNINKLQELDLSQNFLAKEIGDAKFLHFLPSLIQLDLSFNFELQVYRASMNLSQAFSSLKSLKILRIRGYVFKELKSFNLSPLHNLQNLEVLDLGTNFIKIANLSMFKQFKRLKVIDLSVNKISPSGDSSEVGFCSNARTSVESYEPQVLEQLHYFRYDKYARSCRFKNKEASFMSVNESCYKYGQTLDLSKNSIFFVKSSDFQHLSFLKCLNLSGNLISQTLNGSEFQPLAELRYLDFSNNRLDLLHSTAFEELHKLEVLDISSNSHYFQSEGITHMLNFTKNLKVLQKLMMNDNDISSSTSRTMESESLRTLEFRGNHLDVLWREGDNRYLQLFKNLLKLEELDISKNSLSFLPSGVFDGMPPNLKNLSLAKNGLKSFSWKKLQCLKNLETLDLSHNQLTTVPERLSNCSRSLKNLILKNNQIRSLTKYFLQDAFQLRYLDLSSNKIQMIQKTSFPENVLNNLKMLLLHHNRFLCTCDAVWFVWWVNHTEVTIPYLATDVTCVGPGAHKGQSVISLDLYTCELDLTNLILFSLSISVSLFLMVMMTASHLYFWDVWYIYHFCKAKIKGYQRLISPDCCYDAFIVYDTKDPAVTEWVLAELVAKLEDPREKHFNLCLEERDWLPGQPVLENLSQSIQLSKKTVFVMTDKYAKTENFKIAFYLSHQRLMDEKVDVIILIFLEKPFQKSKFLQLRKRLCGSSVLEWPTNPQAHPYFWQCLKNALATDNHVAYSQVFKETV

Row | SMILES | pIC50
1 | COc1cc2c(N3CCN(C(=O)c4ccccc4)CC3)nc(N(C)C)nc2cc1OC1CCCC1 | 5.00
2 | NCc1ccc(C(=O)Nc2cccc(-c3nc4cc(OCCCN5CCCC5)ccc4o3)c2)cc1 | 4.18
3 | CCCCSc1nnc2n(N)c(=O)c3ccccc3n12 | 3.73
4 | COC(=O)[C@H]1O[C@H](n2cnc3c(N)ncnc32)[C@H](O)[C@@H]1O | < 3.00
5 | CC(C)Cn1cnc2c(=O)oc3ccccc3c21 | 4.64
6 | Nc1ncnc2c1ncn2CCO | 3.16
7 | CCSc1nc2c(N)ncnc2[nH]1 | 3.60

The remaining lines, values ahead:

Row | pIC50 | SMILES
8 | 3.96 | CCCSc1nc2c(O)nnc(O)c2n1Cc1ccccc1
9 | 5.00 | COc1cc2c(N3CCN(C(=O)OC(C)(C)C)CC3)nc(N3CCN(C)CC3)nc2cc1OCc1ccccc1
10 | 4.43 | CCN(CC)CCn1cnc2c(=O)oc3ccccc3c21
11 | 3.18 | CCCNc1nc2c(c(=O)n(C)c(=O)n2C)n1CC(C)C
12 | 3.57 | Nc1ncnc2c1nc(Br)n2C[C@@H](O)CO

These molecules were tested against T1, Toll-like receptor 7 (assay: Antagonist activity at human TLR7 expressed in HEK-blue-HTLR7 cells assessed as inhibition of CL264-induced NFkappaB activation measured after 24 hrs by secreted alkaline phosphatase reporter assay).
Assay type: cell-based

Row | pIC50 | SMILES
13 | 5.74 | COc1ccc(CNc2nc(N3CCN(C4CCCC4)CC3)c3cc(OC)c(OCCCN4CCCC4)cc3n2)cc1
14 | 4.56 | COc1ccc(CNc2nc(N3CCNCC3)c3cc(OC)c(OCc4ccccc4)cc3n2)cc1
15 | < 4.30 | COc1cc2c(N(C)C)nc(NCCCN3CCN(C)CC3)nc2cc1OCCCN1CCCC1
16 | 4.70 | COc1ccc(CNc2nc(N3CCN(C)CC3)c3cc(OC)c(OCc4ccccc4)cc3n2)cc1
